Measurements published in a compilation of properties of binary mixtures (doi:10.1021/acs.jced.3c00537).

Assay: xn = mol fraction of the nth substance listed
Conditions: 100 kPa

CC[n+]1ccn(C)c1.COP(=O)([O-])OC + CCO
viscosity [mPa·s]
Conditions | 293.15 K | 298.15 K | 303.15 K | 308.15 K | 313.15 K | 318.15 K | 323.15 K | 328.15 K | 333.15 K | 338.15 K
x1 = 0.1004 | 3.47 | 3.1 | 2.77 | 2.5 | 2.28 | 2.09 | 1.95 | 1.85 | – | 1.55
x1 = 0.2032 | 7.38 | 6.54 | 5.8 | 5.17 | 4.66 | 4.26 | 3.94 | 3.61 | 3.26 | 3.07
x1 = 0.3007 | 14.45 | 12.4 | – | 9.4 | – | – | 6.75 | 6.22 | 5.73 | 5.32
x1 = 0.3994 | 26.4 | 22.01 | 18.49 | 15.67 | 13.43 | 11.74 | 10.36 | 9.26 | 8.31 | 7.61
x1 = 0.5013 | 46.78 | – | 30.72 | 25.48 | 21.4 | 18.27 | – | 13.67 | 11.97 | 10.68
x1 = 0.5994 | 79.2 | 61.56 | – | 38.81 | – | 26.33 | 22.2 | 19.04 | 16.4 | 14.35
x1 = 0.7006 | – | – | 72.82 | 57.48 | 45.56 | 36.84 | 30.39 | – | – | 18.37
x1 = 0.8011 | 176.7 | – | 106.5 | 80.4 | 62.91 | 48.34 | – | 31.5 | 26.15 | 21.94
x1 = 0.8988 | 241 | 192.2 | 140.5 | 106.5 | 78.6 | 62.43 | 49.31 | 39.47 | 32.04 | –
x1 = 1 | 348 | 247 | 178.9 | – | – | 79.1 | 62.91 | 50.39 | – | 33.59

COP(=O)([O-])OC.Cn1cc[n+](C)c1 + CCO
viscosity [mPa·s]
Conditions | 293.15 K | 298.15 K | 303.15 K | 308.15 K | 313.15 K | 318.15 K | 323.15 K | 328.15 K | 333.15 K | 338.15 K
x1 = 0.1005 | – | 2.91 | – | 2.38 | 2.15 | 1.9 | 1.74 | 1.54 | – | 1.22
x1 = 0.2006 | 6.54 | 5.92 | – | 4.71 | 4.29 | 3.89 | 3.5 | 3.19 | 2.93 | 2.67
x1 = 0.3005 | 13.17 | 11.4 | – | 8.77 | 7.8 | – | – | 5.87 | – | 5.14
x1 = 0.4031 | 24.71 | 20.72 | 17.29 | 14.75 | – | 11.17 | 9.96 | 8.98 | 8.12 | 7.43
x1 = 0.4996 | 42.18 | 33.84 | 27.62 | 22.9 | 19.31 | 16.65 | 14.39 | – | 11.07 | –
x1 = 0.6043 | 70.07 | 54.83 | 43.41 | 35.07 | 28.85 | 24.13 | 20.39 | 17.54 | 15.17 | 13.3
x1 = 0.7009 | 111.3 | – | 64.5 | 50.89 | 40.71 | – | – | 22.99 | – | 16.89
x1 = 0.797 | – | 118.8 | 89.5 | 69.03 | – | 43.34 | – | – | 24.3 | 20.61
x1 = 0.8995 | 235.4 | – | 125.2 | – | 72.72 | 58.89 | – | 36.94 | – | 25.28
x1 = 1 | 331 | 232.5 | 165.8 | – | 93.5 | – | 57.09 | 45.49 | 36.7 | 30.05

CCO + CC[n+]1ccn(C)c1.COP(=O)([O-])OC
x2 = 0
Conditions | viscosity [mPa·s]
293.15 K | 1.18
303.15 K | 0.976
308.15 K | 0.89
313.15 K | 0.815
318.15 K | 0.75
323.15 K | 0.694
333.15 K | 0.603
338.15 K | 0.564

CCO + COP(=O)([O-])OC.Cn1cc[n+](C)c1
x2 = 0
Conditions | viscosity [mPa·s]
293.15 K | 1.18
303.15 K | 0.976
313.15 K | 0.815
318.15 K | 0.75
323.15 K | 0.694
333.15 K | 0.603
338.15 K | 0.564
